pIC50: −log10 of the molar value.
System: 186277-243-T-J2-PDC complex spheroid growth, % test/control
Test: Anticancer human tumor 186277-243-T-J2-PDC patient-derived colon adenocarcinoma cell line growth inhibition [Asc]
Conditions: for pIC50: curve of first compound; for viability, T/C: stronger effect = lower value
Summary of the method: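 Tumor cells were grown as complex spheroids with human endothelial cells (HUVEC) and human mesenchymal stem cells as stroma. Agents were tested alone and in combination, in half-log steps down from the clinical Cmax, or from 10 microM where Cmax was unknown.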
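Note: spheroids exposed to agents for 7 days.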
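Throughout, for viability, T/C: 100% = DMSO vehicle control wells.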

C#Cc1c(F)ccc2cc(O)cc(-c3ncc4c(N5CC6CCC(C5)N6)nc(OCC56CCCN5CC(F)C6)nc4c3F)c12 (stereo not given) + CNC(C)C(=O)NC1CN(S(=O)(=O)c2cccc(S(=O)(=O)N3CCC4CCC(C(=O)NC(c5ccccc5)c5ccccc5)N4C(=O)C(NC(=O)C(C)NC)C3)c2)CCC2CCC(C(=O)NC(c3ccccc3)c3ccccc3)N2C1=O was tested, and the pIC50 (second compound 0.01 µM) was 6.24, the pIC50 (second compound 0.0316 µM) was 6.25 and the pIC50 (second compound 0.1 µM) was 6.34. For the same compound, the pIC50 (second compound 0.316 µM) was 6.50, the pIC50 (second compound 1 µM) was 6.64 and the viability, T/C (second compound 0.01 µM, first compound 0.0316 µM) was 110%. The viability, T/C (second compound 0.01 µM, first compound 0.1 µM) was 110%, the viability, T/C (second compound 0.01 µM, first compound 0.316 µM) was 68.6% and the viability, T/C (second compound 0.01 µM, first compound 1 µM) was 31.6%. The viability, T/C (second compound 0.01 µM, first compound 3.16 µM) was 18.1%, the viability, T/C (second compound 0.01 µM, first compound 10 µM) was 10.9% and the viability, T/C (second compound 0.0316 µM, first compound 0.0316 µM) was 119%. The viability, T/C (second compound 0.0316 µM, first compound 0.1 µM) was 98.4%, the viability, T/C (second compound 0.0316 µM, first compound 0.316 µM) was 72.2% and the viability, T/C (second compound 0.0316 µM, first compound 1 µM) was 27.7%. The viability, T/C (second compound 0.0316 µM, first compound 3.16 µM) was 16.8%, the viability, T/C (second compound 0.0316 µM, first compound 10 µM) was 9.61% and the viability, T/C (second compound 0.1 µM, first compound 0.0316 µM) was 111%. The viability, T/C (second compound 0.1 µM, first compound 0.1 µM) was 99.9%, the viability, T/C (second compound 0.1 µM, first compound 0.316 µM) was 61% and the viability, T/C (second compound 0.1 µM, first compound 1 µM) was 24.6%. The viability, T/C (second compound 0.1 µM, first compound 3.16 µM) was 13.2%, the viability, T/C (second compound 0.1 µM, first compound 10 µM) was 8.58% and the viability, T/C (second compound 0.316 µM, first compound 0.0316 µM) was 128%. The viability, T/C (second compound 0.316 µM, first compound 0.1 µM) was 90%, the viability, T/C (second compound 0.316 µM, first compound 0.316 µM) was 53.2% and the viability, T/C (second compound 0.316 µM, first compound 1 µM) was 18.4%. The viability, T/C (second compound 0.316 µM, first compound 3.16 µM) was 10.1%, the viability, T/C (second compound 0.316 µM, first compound 10 µM) was 8.04% and the viability, T/C (second compound 1 µM, first compound 0.0316 µM) was 123%. It also gave a viability, T/C (second compound 1 µM, first compound 0.1 µM) of 91.4%, a viability, T/C (second compound 1 µM, first compound 0.316 µM) of 34% and a viability, T/C (second compound 1 µM, first compound 1 µM) of 11.7%. It also gave a viability, T/C (second compound 1 µM, first compound 3.16 µM) of 8.66% and a viability, T/C (second compound 1 µM, first compound 10 µM) of 6.64%.

CCN1C(C(=O)NC23CCC(C(=O)O)(CC2)CC3)C(c2cccc(Cl)c2F)C2(C(=O)Nc3cc(Cl)ccc32)C12CCCCC2 (stereo not given) + CNC(C)C(=O)NC1CN(S(=O)(=O)c2cccc(S(=O)(=O)N3CCC4CCC(C(=O)NC(c5ccccc5)c5ccccc5)N4C(=O)C(NC(=O)C(C)NC)C3)c2)CCC2CCC(C(=O)NC(c3ccccc3)c3ccccc3)N2C1=O was tested, and the pIC50 (second compound 0.01 µM) was < 5.52, the pIC50 (second compound 0.0316 µM) was 5.57 and the pIC50 (second compound 0.1 µM) was 5.55. It also gave a pIC50 (second compound 0.316 µM) of 5.57, a pIC50 (second compound 1 µM) of 5.62 and a viability, T/C (second compound 0.01 µM, first compound 0.00949 µM) of 116%. For the same compound, the viability, T/C (second compound 0.01 µM, first compound 0.03 µM) was 147%, the viability, T/C (second compound 0.01 µM, first compound 0.0949 µM) was 155% and the viability, T/C (second compound 0.01 µM, first compound 0.3 µM) was 115%. It also gave a viability, T/C (second compound 0.01 µM, first compound 0.949 µM) of 76.7%, a viability, T/C (second compound 0.01 µM, first compound 3 µM) of 53.6% and a viability, T/C (second compound 0.0316 µM, first compound 0.00949 µM) of 112%. It also gave a viability, T/C (second compound 0.0316 µM, first compound 0.03 µM) of 141%, a viability, T/C (second compound 0.0316 µM, first compound 0.0949 µM) of 152% and a viability, T/C (second compound 0.0316 µM, first compound 0.3 µM) of 125%. For the same compound, the viability, T/C (second compound 0.0316 µM, first compound 0.949 µM) was 84.5%, the viability, T/C (second compound 0.0316 µM, first compound 3 µM) was 46.3% and the viability, T/C (second compound 0.1 µM, first compound 0.00949 µM) was 131%. For the same compound, the viability, T/C (second compound 0.1 µM, first compound 0.03 µM) was 143%, the viability, T/C (second compound 0.1 µM, first compound 0.0949 µM) was 147% and the viability, T/C (second compound 0.1 µM, first compound 0.3 µM) was 122%. It also gave a viability, T/C (second compound 0.1 µM, first compound 0.949 µM) of 76.5%, a viability, T/C (second compound 0.1 µM, first compound 3 µM) of 48.2% and a viability, T/C (second compound 0.316 µM, first compound 0.00949 µM) of 129%. It also gave a viability, T/C (second compound 0.316 µM, first compound 0.03 µM) of 149%, a viability, T/C (second compound 0.316 µM, first compound 0.0949 µM) of 149% and a viability, T/C (second compound 0.316 µM, first compound 0.3 µM) of 118%. For the same compound, the viability, T/C (second compound 0.316 µM, first compound 0.949 µM) was 75%, the viability, T/C (second compound 0.316 µM, first compound 3 µM) was 46.8% and the viability, T/C (second compound 1 µM, first compound 0.00949 µM) was 134%. The viability, T/C (second compound 1 µM, first compound 0.03 µM) was 132%, the viability, T/C (second compound 1 µM, first compound 0.0949 µM) was 159% and the viability, T/C (second compound 1 µM, first compound 0.3 µM) was 118%. It also gave a viability, T/C (second compound 1 µM, first compound 0.949 µM) of 74.9% and a viability, T/C (second compound 1 µM, first compound 3 µM) of 43.5%.
